Reference: patent US20230391824A1, “RATIONALE, DESIGN, SYNTHESIS AND VALIDATION OF A SMALL MOLECULE ANTICANCER AGENT” (priority 2021, published 2023)

Experiments:
LIN28B protein = target: T1, LIN28B protein (Homo sapiens, UniProt Q6ZN17); assay: Western blotting of Lin28B protein in cancer cell models; type: cell-based; conditions: YP-MEL, BT-37, NT-2 cells; at the tested dosages
T1 construct: in a panel of endogenously LIN28 expressing cancer cell models; endogenous in cells; host or cells: YP-MEL, BT-12, BT-37, NT-2 (NTERA)
T1 sequence (Q6ZN17 1-250): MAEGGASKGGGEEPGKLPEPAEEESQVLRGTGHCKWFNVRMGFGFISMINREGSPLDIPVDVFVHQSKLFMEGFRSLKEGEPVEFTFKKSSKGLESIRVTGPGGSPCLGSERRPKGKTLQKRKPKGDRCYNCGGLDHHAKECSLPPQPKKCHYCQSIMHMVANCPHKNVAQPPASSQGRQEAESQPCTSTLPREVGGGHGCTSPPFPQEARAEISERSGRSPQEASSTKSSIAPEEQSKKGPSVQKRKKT
Experimental: FIG. 5: Compound of formula (I) mixture, containing the two isomers (P1+P2) causes significant reduction in Lin28A protein from 5 μM onwards, in a panel of endogenously LIN28 expressing cancer cell models. […] LIN28A and LIN28B expression profile in pediatric CNS cancer cell lines, 96-hr post-treatment with Compound of formula (I). SDS-PAGE on 10% polyacrylamide gel of total cell lysates from untreated cells harvested at 80-90% confluency. Samples loaded with volumes for 20 μg protein. LIN28A and LIN28B proteins were detected using the anti-LIN28A antibody (#8706; Cell Signaling Technology) and anti-LIN28B antibody (#11965; Cell Signalling Technology) at 1:2000 dilutions. T47D: adult breast cancer (LIN28A expressing); YPMEL: malignant melanoma derived from Neurocutaneous Melanosis (NCM) (Lin28A and Lin28B expressing); BT-12: pediatric atypical-teratoid rhabdoid tumor (AT/RT). […]
The proteins were extracted from the same samples as the RNA using the RIPA lysis buffer. […] The proteins were detected using the anti-Lin28A antibody (#8706; Cell Signaling Technology), anti-Lin28B antibody (#11965, Cell Signaling Technology) the anti-beta-actin antibody at respectively 1:2000, 1:2000 and 1:5000 dilutions.

Lin28A protein = target: T2, Lin28A protein (Homo sapiens, UniProt Q9H9Z2); assay: Western blotting of Lin28A protein in cancer cell models; type: cell-based; conditions: YP-MEL, BT-37, NT-2 cells
T2 construct: in a panel of endogenously LIN28 expressing cancer cell models; endogenous in cells; host or cells: T47D, YP-MEL, BT-12, BT-37, NT-2 (NTERA)
T2 sequence (Q9H9Z2 1-209): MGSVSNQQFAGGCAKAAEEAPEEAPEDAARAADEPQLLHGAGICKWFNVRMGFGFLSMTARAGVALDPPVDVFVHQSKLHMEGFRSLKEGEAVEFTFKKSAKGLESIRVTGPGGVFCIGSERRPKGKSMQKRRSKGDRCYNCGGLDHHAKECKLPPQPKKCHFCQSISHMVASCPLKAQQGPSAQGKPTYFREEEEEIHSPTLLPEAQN
Experimental: FIG. 5: Compound of formula (I) mixture, containing the two isomers (P1+P2) causes significant reduction in Lin28A protein from 5 μM onwards, in a panel of endogenously LIN28 expressing cancer cell models. […] LIN28A and LIN28B expression profile in pediatric CNS cancer cell lines, 96-hr post-treatment with Compound of formula (I). SDS-PAGE on 10% polyacrylamide gel of total cell lysates from untreated cells harvested at 80-90% confluency. Samples loaded with volumes for 20 μg protein. LIN28A and LIN28B proteins were detected using the anti-LIN28A antibody (#8706; Cell Signaling Technology) and anti-LIN28B antibody (#11965; Cell Signalling Technology) at 1:2000 dilutions. T47D: adult breast cancer (LIN28A expressing); YPMEL: malignant melanoma derived from Neurocutaneous Melanosis (NCM) (Lin28A and Lin28B expressing); BT-12: pediatric atypical-teratoid rhabdoid tumor (AT/RT).
FIG. 7A-C: To determine the differences in the biological activity of the two isomers (P1+P2) of Compound of formula (I), we tested the effects of purified and separated P1 and P2 isomers on the protein expression of Lin28A and Lin28B. (A) YP-MEL (NCM). (B) BT-37 (AT/RT). (C) NT-2 (NTERA) (Testicular cancer).
(§1) The proteins were extracted from the same samples as the RNA using the RIPA lysis buffer. The protein extracts (20 μg) were run on 10% SDS-PAGE and transferred on a nitrocellulose blotting membrane 0.22 μm (GE Healthcare) using the Trans-Blot® SD semi-dry transfer devise (Biorad). The proteins were detected using the anti-Lin28A antibody (#8706; Cell Signaling Technology), anti-Lin28B antibody (#11965, Cell Signaling Technology) the anti-beta-actin antibody at respectively 1:2000, 1:2000 and 1:5000 dilutions.

Solubility = type: physicochemical; conditions: DMSO, organic solvent or mixture; read-out: solubility in DMSO
[1] = system: NT-2 testicular cancer cells; assay: Flow cytometric (propidium iodide) cell cycle analysis of NT-2 cells; type: cell-based; conditions: 24h, compared with P1
Experimental: FIG. 9: NT-2, testicular cancer cells, were incubated with Compound of formula (I) isomers for 24h and subjected to Flow Cytometric analysis to determine the alterations in cancer cell cycle. […] Therefore, only the P1 isomer of Compound of formula (I) was investigated further to determine its in vitro and in vivo efficacy.
The method for Propidium Iodide (PI) based cell cycle analysis was performed as per the instructions given by the manufacturer (AB139418; Abcam). Briefly NT-2 cells treated with Compound of formula (I) versions were harvested in single cell suspensions with each experimental condition containing two million cells, fixed in 66% Ethanol overnight at 4° C. The ethanol was removed thoroughly by centrifugation, followed by rehydration of cells in PBS with a repeat of centrifugation. Cells were stained in PI (1%) and RNase solution (1%) in PBS for 30 minutes at 37° C. in the dark. The cells were analyzed immediately on the Flow Cytometer.

[2] = system: LIN28A-positive cancer cell models; assay: Alamar Blue cell viability, LIN28A-positive versus LIN28B-expressing cancer cell models; type: cell-based; conditions: relative to LIN28B-expressing cancer cell models
Experimental: FIG. 6: Cells were cultured in the presence of the Compound of formula (I) (P1+P2) at increasing concentrations and cell viability was evaluated using Alamar Blue dye and measurement at Excitation of 550 nm and Emission of 590 nm. All the data shown are representative of three replicates. […] LIN28A and LIN28B expression in the presence of Compound of formula (I) correlates with the sensitivity of cells to this inhibitor.
FIG. 8A-F: Cells were cultured in the presence of the Compound of formula (I) (versions P1, P2 or P1+P2 at equipotent doses) at increasing concentrations and cell viability was evaluated using Alamar Blue dye and measurement at Excitation of 550 nm and Emission of 590 nm. All the data shown are representative of three replicates. […] A. NT-2 cell viability. B. YP-MEL cell viability. C. WI-38 cell viability. D. T47D cell viability. E. BT-12 cell viability. F. summary of Lin28A and Lin28B status.
FIG. 8A-F. Cells were cultured in the presence of the Compound of formula (I) (versions P1, P2 or P1+P2 at equipotent doses) at increasing concentrations and cell viability was evaluated using Alamar Blue dye and measurement at Excitation of 550 nm and Emission of 590 nm. All the data shown are representative of three replicates. […] A. NT-2 cell viability. B. YP-MEL cell viability. C. WI-38 cell viability. D. T47D cell viability. E. BT-12 cell viability. […]

let-7a miRNA = assay: Taqman miRNA qRT-PCR of let-7a; type: cell-based
Experimental: FIG. 11: Compound of formula (I) lead to successful rescue of pre-Iet-7a and their maturation to miRNA let-7a tumor suppressor, only at 1 μM.
Total RNA was extracted using the RNeasy kit (74104, Qiagen). TaqMan® qRT-PCR was performed using standard reagents from Life Technologies (TaqMan® MicroRNA Assay: hsa-let-7a: 000377). The RT was performed using the TaqMan® primers from MicroRNA Assays and the TaqMan® MicroRNA Reverse Transcription Kit (4366596, Life technologies) with 20 ng total RNA. The PCR was performed in a LightCycler 480 instrument with GoTaq® Probe qPCR Master mix (A6102, Promega) according to the manufacturer's protocol. Each reaction was carried out in three technical replicates.

stem cell tumor spheres = assay: Stem cell tumor spheres, western blotting of stemness and differentiation markers; type: cell-based
Experimental: FIG. 12: Dose-dependent effect of Compound of formula (I) on the stem cell tumor spheres, in the presence of LIF—a pluripotency supplement used for maintenance of stem cell population (Panel A). As determined by western blotting, Compound of formula (I) begins to halt the expression of stemness markers (Nestin, LIN28A, Oct-4) and induces elevation of differentiation markers (GFAP), from 1 μM onwards (Panel B).
as §1

[3] = system: BHQ1-pre-let7a and EGFP-Lin28A bound complexes; assay: FRET assay, displacement of BHQ1-pre-let7a from EGFP-Lin28A; type: binding; conditions: at 100 μM
Experimental: This method was adapted from Roos et al (2016). HEK 293-T cells (ATCC) were cultured as monolayers in DMEM GlutaMAX™-1 (Cat #31966-021, Gibco®, Life Technologies) supplemented with 10% of FBS (fetal bovine serum). Stable EGFP-Lin28A HEK 293-T cells were cultured as monolayers in DMEM supplemented with 10% of FBS (fetal bovine serum) and 0.5 mg/ml Geneticin G418 (10131-035, Life Technologies). Transfections were performed according to the manufacturer's protocol with […] (12252-011, Invitrogen, Life Technologies) for siRNAs and JetPEI (101-10, Polyplus transfections) was used for plasmid DNA. […]
160,000 HEK 293 T cells were seeded per well in 6 well plates and transfected with 320 ng pEGFP-C2-Lin28A plasmid according to the experimental setup with the reagents described above and cells were allowed to recover for 48h. […] The EGFP-lin28A| expressing cells were sorted using Fluorescence Activated Cell Sorting (FACS). Finally, larger colonies of individual clones were analyzed for expression levels of EGFP-Lin28A by performing the FRET assay. […]
FRET system (EGFP-Lin28A and 19B-let7a) treated with DMSO was used as positive control. […] The FRET measurements were obtained from the optimized fluorescence parameter. […] The average signal intensity and background fluorescence were corrected with compound self-fluorescence with and without binding buffer.

CCC(C)C(NC(=O)C(Cc1ncc[nH]1)NC(=O)c1cccc(C(N)=O)c1)C(=O)Nc1ccc(O)c(-c2nc3ccccc3s2)c1 (centres unmarked) [Compound P2]
Lin28B expression (LIN28B protein): remained unaltered | effect on the expression levels of Lin28A (Lin28A protein): no effect | solubility (Solubility): < 1000 µg/mL | triggering of cancer cell death / changes in cancer cell viability [1]: failed to cause any significant changes

CC[C@H](C)[C@H](NC(=O)[C@H](Cc1ncc[nH]1)NC(=O)c1cccc(C(N)=O)c1)C(=O)Nc1ccc(O)c(-c2nc3ccccc3s2)c1 [Compound of formula (I)]
sensitivity of LIN28A-positive cancer cell models [2]: heightened sensitivity | concentration giving rescue of pre-let-7a and maturation to miRNA let-7a (let-7a miRNA): 1 µM | upregulation of let-7a (let-7a miRNA; Lin28B expressing BT-12 cells, relative to RNU6B): only minor upregulation | expression of let-7a miRNA tumor suppressor (let-7a miRNA; YP-MEL, T47D, A549 cells, relative to RNU6B): increase in the expression | effect on stemness and differentiation markers in the stem cell population (stem cell tumor spheres): dose dependent reduction of sternness markers and elevation of differentiation markers | concentration from which stemness markers (Nestin, LIN28A, Oct-4) are halted and differentiation markers (GFAP) elevated (stem cell tumor spheres; in the presence of LIF, western blotting): ≥ 1 µM

CC(=O)N(C)c1cccc(-c2ccc3nnc(C)n3n2)c1 [c1632, reference compound]
FRET reduction compared with 70% by Compound of formula (I) [3]: equivalent FRET reduction
